Results: article PMC8621101, “Inhibition of XPO-1 Mediated Nuclear Export through the Michael-Acceptor Character of Chalcones” (Pharmaceuticals, 2021)
Each block holds one molecule with its values, some of them ahead of it.

What was measured:
NCI-H460 cells = assay: Cell proliferation assay (IncuCyte confluence), NCI-H460; type: cell-based; conditions: Homo sapiens; NCI-H460 lung carcinoma; 72 h; mean of two independent experiments ± SEM; read-out: IC50 antiproliferative activity NCI-H460
Experimental: (§1) Cancer cell lines HCT-116, NCI-H460, HL-60, K-562 and Z-138 were acquired from the American Type Culture Collection (ATCC, Manassas, VA, USA). The DND-41 cell line was purchased from the Deutsche Sammlung von Mikroorganismen und Zellkulturen (DSMZ Leibniz-Institut, Brunswick, Germany), and the HAP-1 cell line was ordered from Horizon Discovery (Horizon Discovery Group, Water Beach, UK). All cell lines were cultured as recommended by the suppliers. Culture media were purchased from Gibco Life Technologies and supplemented with 10% fetal bovine serum (HyClone, GE Healthcare Life Sciences, Chicago, Illinois, USA).
(§2) Adherent cell lines HCT-116, NCI-H460 and Hap-1 cells were seeded at a density between 500 and 1500 cells per well in 384-well tissue culture plates (Greiner). After overnight incubation, cells were treated with different concentrations of the test compounds. Suspension cell lines HL-60, K-562, Z-138 and DND-41 were seeded at densities ranging from 2500 to 5500 cells per well in 384-well culture plates containing the test compounds at the same concentration points.

DND-41 cells = assay: Cell proliferation assay (IncuCyte confluence), DND-41; type: cell-based; conditions: DND41; DND-41 acute lymphoblastic leukemia; 72 h; mean of two independent experiments ± SEM; read-out: IC50 antiproliferative activity DND-41
Experimental: as §1, §2

XPO1 = target: T1, XPO1 (Homo sapiens, UniProt O14980); assay: XPO1 phenotypic reporter assay in HeLa NLSSV40-AcGFP-NESPKI cells; type: cell-based; conditions: HeLa GFP reporter cell line; for IC50: 2 h treatment, mean ± SEM of two independent experiments, read-out: XPO1 inhibition IC50
T1 construct: the compounds were assayed in a reporter cell line based on the subcellular localization of a XPO1-dependent GFP reporter cargo protein; endogenous in cells; host or cells: HeLa cells stably transfected with the NLSSV40-AcGFP-NESPKI reporter (only the reporter cargo is transfected, not XPO1)
T1 sequence (O14980 whole entry): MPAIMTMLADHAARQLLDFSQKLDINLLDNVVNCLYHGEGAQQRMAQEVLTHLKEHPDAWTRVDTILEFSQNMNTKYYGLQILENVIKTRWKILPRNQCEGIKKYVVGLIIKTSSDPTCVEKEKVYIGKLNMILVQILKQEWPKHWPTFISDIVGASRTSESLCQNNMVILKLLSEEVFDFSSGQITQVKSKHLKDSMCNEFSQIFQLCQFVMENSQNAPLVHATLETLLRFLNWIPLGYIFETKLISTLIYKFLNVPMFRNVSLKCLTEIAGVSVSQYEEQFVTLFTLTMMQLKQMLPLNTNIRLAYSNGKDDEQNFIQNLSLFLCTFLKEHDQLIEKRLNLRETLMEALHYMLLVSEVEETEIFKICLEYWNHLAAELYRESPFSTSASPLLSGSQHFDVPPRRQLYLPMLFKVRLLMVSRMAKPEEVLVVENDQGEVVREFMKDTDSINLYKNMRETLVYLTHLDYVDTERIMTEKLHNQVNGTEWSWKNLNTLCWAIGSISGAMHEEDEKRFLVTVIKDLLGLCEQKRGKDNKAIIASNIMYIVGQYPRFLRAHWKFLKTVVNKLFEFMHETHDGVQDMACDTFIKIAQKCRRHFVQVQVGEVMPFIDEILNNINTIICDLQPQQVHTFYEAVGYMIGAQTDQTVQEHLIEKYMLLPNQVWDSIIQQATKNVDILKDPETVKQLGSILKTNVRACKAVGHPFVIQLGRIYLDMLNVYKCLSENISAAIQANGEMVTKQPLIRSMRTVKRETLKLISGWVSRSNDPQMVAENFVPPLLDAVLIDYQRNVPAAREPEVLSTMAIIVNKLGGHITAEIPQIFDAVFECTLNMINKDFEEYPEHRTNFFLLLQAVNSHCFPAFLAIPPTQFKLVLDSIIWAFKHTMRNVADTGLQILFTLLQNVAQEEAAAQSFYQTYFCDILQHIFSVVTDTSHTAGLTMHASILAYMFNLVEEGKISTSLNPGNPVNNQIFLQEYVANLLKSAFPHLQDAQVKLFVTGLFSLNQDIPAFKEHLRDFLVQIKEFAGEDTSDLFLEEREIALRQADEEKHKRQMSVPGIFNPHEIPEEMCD
Experimental: Stably transfected HeLa NLSSV40-AcGFP-NESPKI were cultured as described in Vercruysse et al.
To study the XPO1-mediated nuclear export, stably transfected HeLa NLSSV40-AcGFP-NESPKI reporter cells were seeded at 8000 cells per well in 96-well all clear tissue culture plates (TPP). After overnight incubation, cells were treated with different doses of compound or solvent (DMSO) for 2 h and then fixed and counterstained with DAPI. Fluorescence was read on an ArrayScan XTI High Content Reader (Thermo Fisher Scientific, Waltham, MA, USA). Nuclear and cytoplasmic compartments were segmented and their average pixel intensities in the green channel were quantitated employing the HCS Studio software. Genedata Screener software was used for dose-response curve fitting, and calculation of EC50 values was based on the percentage of cells having a predominant nuclear localisation (ratio of nuclear to cytoplasmic signal equal or above 1.4) of the reporter construct. Compounds were tested in two independent experiments and represented as mean ± SEM.

HCT-116 cells = assay: Cell proliferation assay (IncuCyte confluence), HCT-116; type: cell-based; conditions: Homo sapiens; HCT-116 colorectal carcinoma; 72 h; mean of two independent experiments ± SEM; read-out: IC50 antiproliferative activity HCT-116
Experimental: as §1, §2

HL-60 cells = assay: Cell proliferation assay (IncuCyte confluence), HL-60; type: cell-based; conditions: Homo sapiens; HL-60 acute myeloid leukemia; 72 h; mean of two independent experiments ± SEM; read-out: IC50 antiproliferative activity HL-60
Experimental: as §1, §2

[1] = system: panel of cancer cell lines; assay: Antiproliferative activity, panel of cancer cell lines; type: cell-based; conditions: panel of cancer cell lines
Experimental: as §2

Hap-1 cells = assay: Cell proliferation assay (IncuCyte confluence), Hap-1; type: cell-based; conditions: Homo sapiens, HAP1; Hap-1 chronic myeloid leukemia; 72 h; mean of two independent experiments ± SEM; read-out: IC50 antiproliferative activity Hap-1
Experimental: as §1, §2

K-562 cells = assay: Cell proliferation assay (IncuCyte confluence), K-562; type: cell-based; conditions: Homo sapiens, K562; K-562 chronic myeloid leukemia; 72 h; mean of two independent experiments ± SEM; read-out: IC50 antiproliferative activity K-562
Experimental: as §1, §2

Z-138 cells = assay: Cell proliferation assay (IncuCyte confluence), Z-138; type: cell-based; conditions: Homo sapiens; Z-138 non-Hodgkin lymphoma; 72 h; mean of two independent experiments ± SEM; read-out: IC50 antiproliferative activity Z-138
Experimental: as §1, §2

[2] = GSH reactivity assay (HPLC, DTNB quench); type: physicochemical; conditions: 500 µM compound, 5 mM GSH, 37 °C, PBS pH 7.4 with EDTA:DMSO 1:1
Experimental: In order to determine if these chalcones could react with thiol groups through a hetero-Michael addition reaction, a few selected compounds (9, 10, 13 and 18) were incubated with glutathione (GSH). After different incubation times, the reactions were quenched by adding 5,5′-dithiobis(2-nitrobenzoic acid) (DTNB, Ellman´s reagent) (1:1 ratio with respect to the initial concentration of GSH). The course of the reaction was followed by HPLC, adapting reported procedures. […] Thus, although this assay is only qualitative, the tendency observed among these chalcones nicely fits the reactivity described for α-X-2´3,4,4´-tetramethylchalcones.
A 500 µM sample of the tested compound was incubated with 5 mM reduced L-glutathione for 24 h at 37 °C with a final volume of 200 μL. As a solvent system, 20 mM PBS buffer pH 7.4 with 2 mM EDTA:DMSO (1:1) was used. To perform the assay, stock solutions of 20 mM of the chalcones (9, 10, 13 and 18) and 15 mM of reduced L-glutathione were freshly prepared for every experiment and then diluted properly to give the final electrophile:nucleophile ratio (1:10). A 5 mM solution of 5,5′-dithiobis(2-nitrobenzoic acid) (DTNB) was prepared in the same solvent system to quench the reaction. After different time points (10 min, 1 h, 4 h and 24 h), an aliquot of 20 μL of the incubation mixture was quenched by adding 20 μL of the DTNB stock solution, mixed thoroughly, and then analyzed by HPLC. HPLC analysis was performed in Agilent 1120 compact LC, column ACE 5 C18-300 (15 cm × 4.6 mm); UV detection was performed at λ = 254 nm. Solvents used were acetonitrile for bottle A and H2O (containing 0.05% TFA) for bottle B, and the flow rate was 1mL/min. The gradients used were: (A) incubations with chalcone 9: from 10% to 80% of solvent A in 10 min; (B) incubations with chalcones 10 and 18: from 10% to 100% of solvent A in 10 min. The new peaks were analysed by LC-MS. As controls, a 500 μM solution of the α,β-unsaturated compound was also analysed, and a 5 mM reduced L-glutathione solution was quenched by adding DNTB at the same time points. In general, after 6 h of incubation, no GSH was detected.

SMILES: NC(=O)/C(=C/c1cncnc1)C(=O)c1ccc2ccccc2c1 [Compound 15, (E)-2-Carbamoyl-1-(naphthalene-2-yl)-3-(pyrimidin-5-yl)prop-2-en-1-one]
IC50 (NCI-H460 cells): 2.6 ± 0.7 µM
IC50 (DND-41 cells): 8.9 ± 0.9 µM
IC50 (XPO1): ~10 µM
IC50 (HCT-116 cells): 5.3 ± 3.1 µM
IC50 (HL-60 cells): 5.5 ± 3.6 µM
Antiproliferative activity, in words [1]: slightly less active than the parent chalcone 9
IC50 (Hap-1 cells): 2.1 ± 0.7 µM
IC50 (K-562 cells): 2.1 ± 0.1 µM
IC50 (Z-138 cells): 5.1 ± 2.7 µM

SMILES: COc1cc(OCC=C(C)C)cc(C(=O)/C=C/c2cncnc2)c1 [Compound 34, (E)-1-(3′-Methoxy-5′-((3-methylbut-2-en-1-yl)oxy)phenyl)-3-(pyrimidin-5′’-yl)prop-2-en-1-one]
IC50 (NCI-H460 cells): 34.5 ± 5.2 µM
IC50 (DND-41 cells): 10.1 µM
XPO1 inhibition, in words (XPO1): active
IC50 (XPO1): 1.59 ± 0.36 µM
IC50 (HCT-116 cells): 52.9 ± 3.6 µM
IC50 (HL-60 cells): 40.2 ± 10.1 µM
IC50 (Hap-1 cells): 10 ± 2 µM
IC50 (K-562 cells): 4.1 ± 1.9 µM
IC50 (Z-138 cells): 4.6 ± 2.7 µM

SMILES: COCCOc1cc(OC)cc(C(=O)/C=C/c2cncnc2)c1 [Compound 33, (E)-1-(3′-Methoxy-5′-(2-methoxyethoxy)phenyl)-3-(pyrimidin-5′’-yl)prop-2-en-1-one]
IC50 (NCI-H460 cells): 16.9 ± 4.5 µM
IC50 (DND-41 cells): 3.7 ± 1.6 µM
XPO1 inhibition, in words (XPO1): active
IC50 (XPO1): 12.3 ± 1.28 µM
IC50 (HCT-116 cells): 34.2 ± 6.5 µM
IC50 (HL-60 cells): 10 ± 0.9 µM
IC50 (Hap-1 cells): 4.3 ± 2.5 µM
IC50 (K-562 cells): 37.5 ± 0.9 µM
IC50 (Z-138 cells): 1.5 ± 0.2 µM

SMILES: COC(=O)/C(=C\c1cncnc1)C(=O)c1cc(OC)cc(OC)c1 [Compound 30, (E)-2-Methoxycarbonyl-1-(3′,5′-dimethoxybenzoyl)-3-(pyrimidin-5′-yl)prop-2-en-1-one]
IC50 (NCI-H460 cells): 17.3 ± 4.6 µM
IC50 (DND-41 cells): 43.2 ± 6.4 µM
XPO1 inhibition, in words (XPO1): almost inactive against XPO1
IC50 (XPO1): 87.3 ± 4.91 µM
IC50 (HCT-116 cells): ≥ 22.2 µM
IC50 (HL-60 cells): 23.4 ± 1.9 µM
Antiproliferative activity, in words [1]: considerably less active than the α-H chalcone 10
IC50 (Hap-1 cells): ≥ 32 µM
melting point: 81 to 82 °C
IC50 (K-562 cells): 42.9 ± 0.1 µM
IC50 (Z-138 cells): 47.6 ± 1.1 µM

More lines, main results first:

IC50 (NCI-H460 cells): 4.3 ± 2.2 µM
IC50 (XPO1): 1.27 ± 0.29 µM
IC50 (HCT-116 cells): 3.1 ± 0.9 µM
IC50 (HL-60 cells): 3.5 ± 2.1 µM
melting point: 123 to 125 °C
IC50 (K-562 cells): 2.2 ± 0.03 µM
SMILES: O=C(/C=C/c1cccnc1)c1ccc2ccccc2c1 [Compound 24, (E)-1-(Naphthalen-2-yl)-3-(pyridin-3-yl)prop-2-en-1-one]
IC50 (DND-41 cells): 1.8 ± 0.5 µM
Antiproliferative activity, in words [1]: low µM range
IC50 (Hap-1 cells): 1.6 ± 0.1 µM
IC50 (Z-138 cells): 1.6 ± 0.1 µM

IC50 (NCI-H460 cells): > 100 µM
XPO1 inhibition, in words (XPO1): inactive against XPO1
IC50 (XPO1): > 100 µM
IC50 (HCT-116 cells): > 100 µM
IC50 (HL-60 cells): ≥ 40.9 µM
IC50 (K-562 cells): 48.5 ± 2.4 µM
SMILES: C/C(=C\c1cncnc1)C(=O)c1ccc2ccccc2c1 [Compound 18, (E)-2-Methyl-1-(naphthalen-2-yl)-3-(pyrimidin-5-yl)prop-2-en-1-one]
IC50 (DND-41 cells): 39.1 ± 5.3 µM
Antiproliferative activity, in words [1]: almost inactive
Reaction with GSH (hetero-Michael addition), qualitative [2]: remained almost unaltered even after 4 h of incubation
IC50 (Hap-1 cells): > 100 µM
IC50 (Z-138 cells): > 100 µM

IC50 (XPO1): 9.18 ± 3.28 µM
SMILES: NC(=O)C(=Cc1cncnc1)C(=O)c1ccc2ccccc2c1 [Compound 5, reference compound]

IC50 (NCI-H460 cells): 7.7 ± 1.1 µM
IC50 (XPO1): 10.7 ± 3.24 µM
IC50 (HCT-116 cells): 1.9 ± 0.4 µM
IC50 (HL-60 cells): 0.9 ± 0.2 µM
melting point: 135 to 137 °C
IC50 (K-562 cells): 4 ± 0.2 µM
SMILES: O=C(/C=C/c1ccncc1)c1ccc2ccccc2c1 [Compound 26, (E)-1-(Naphthalen-2-yl)-3-(pyridin-4-yl)prop-2-en-1-one]
IC50 (DND-41 cells): 1.9 ± 0.4 µM
Antiproliferative activity, in words [1]: low µM range
IC50 (Hap-1 cells): 2.3 ± 0.3 µM
IC50 (Z-138 cells): 1.1 ± 0.4 µM

IC50 (NCI-H460 cells): 51.6 ± 11.7 µM
IC50 (XPO1): 7.28 ± 1.34 µM
IC50 (HCT-116 cells): 3.9 ± 1.5 µM
IC50 (HL-60 cells): 1.8 ± 0.05 µM
melting point: 89 to 90 °C
IC50 (K-562 cells): 4.8 ± 2.8 µM
SMILES: O=C(/C=C/c1ccccn1)c1ccc2ccccc2c1 [Compound 25, (E)-1-(Naphthalen-2-yl)-3-(pyridin-2-yl)prop-2-en-1-one]
IC50 (DND-41 cells): 2.6 ± 0.4 µM
Antiproliferative activity, in words [1]: low µM range
IC50 (Hap-1 cells): 3.4 ± 0.5 µM
IC50 (Z-138 cells): 2.3 ± 0.5 µM
